Measurements reported in publication PMC5103216, “Novel Agonist Bioisosteres and Common Structure-Activity Relationships for The Orphan G Protein-Coupled Receptor GPR139” (Scientific Reports, 2016).
“And” between values parts separate entries of the source, which are not always exact repeats. Equal values may be shown once. Read-outs that look alike come from different tables or passages of the source.

Assays:
[1] = not told; cited from earlier work
M1 receptor [2] = target: T1, M1 receptor (Homo sapiens, UniProt P11229); test: cAMP dynamic 2 assay measuring Gs activation in CHO-M1 (control); type: cell-based
T1 construct: host or cells: CHO-k1
T1 sequence (P11229 1-460): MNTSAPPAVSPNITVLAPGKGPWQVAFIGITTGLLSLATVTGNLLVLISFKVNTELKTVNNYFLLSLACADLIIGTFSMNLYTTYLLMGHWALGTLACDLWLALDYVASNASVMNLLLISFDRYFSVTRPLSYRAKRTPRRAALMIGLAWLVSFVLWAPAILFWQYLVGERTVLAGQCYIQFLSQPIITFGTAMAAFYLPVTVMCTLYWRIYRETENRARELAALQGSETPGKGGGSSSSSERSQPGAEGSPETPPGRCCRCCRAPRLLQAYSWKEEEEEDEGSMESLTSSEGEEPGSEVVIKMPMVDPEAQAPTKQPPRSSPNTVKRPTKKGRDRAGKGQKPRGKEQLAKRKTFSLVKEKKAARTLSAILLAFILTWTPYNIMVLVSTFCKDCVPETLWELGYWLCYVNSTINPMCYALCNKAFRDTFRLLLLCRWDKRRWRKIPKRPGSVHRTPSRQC
Procedure: (§1) The cAMP assay was performed as described in the work by Thomsen et al.[28] with few modifications. Breifly, CHO-139 and CHO-M1 was detached and resuspended to a concentration of 1 million cells/mL. 5 μL 2x concentrated compound (for Gs: +100 μM IBMX and for Gi: +100 μM IBMX +10 μM forskolin (Fsk)) and 5 μL cell suspension (5,000 cells/well) was mixed. The plate was sealed and incubated at room temperature for 30 min. Next, 10 μL detection reagents (lysis buffer containing 2.5% Eu^3+-anti-cAMP antibody and 2.5% cAMP-d2) was added and the plate was incubated for 1 hour at room temperature. The plate was read on an Envision (PerkinElmer, Waltham, MA, USA). The TR-FRET 665 nm/615 nm ratio, which is inversely proportional with the cAMP production, was used to determination the concentration of the cAMP response. […]
(§2) Supplementary Figure 1. cAMP dynamic 2 assay measuring Gs activation. 5,000 cells/well of CHO-139 (pink bars) or CHO-M1 (blue bars) cells are
(§3) incubated with the indicated compounds for 30 min at room temperature in the presence of 50 µM IBMX. 5 µM and 10 µM forskolin (Fsk) serves as positive
(§4) controls. The responses are one representative out of at two independent experiments performed in triplicates. Data points are means ± SD. […]
(§5) Data points are means ± SD.

M1 receptor [3] = target: T1, M1 receptor; test: IP-One HTRF assay in CHO-M1 (control); type: cell-based
Procedure: (§6) Figure 3 IP-One HTRF® assay measuring Gq activation. Concentration-response curves of 1a, 7c (racemic), L-Trp, L-Phe, DL43, DL126, DL24, DL22, DL132 and DL130 on (A) CHO-139 and (B) CHO-M1 in the IP-One assay (final conc of LiCl = 20 mM). The dotted line represent the [IP1] response from (A) 10 μM 1a and (B) 1 μM carbachol, which is an agonist for the muscarinic acethylcholine receptor M1 that activates the Gq coupled pathway. The graphs are means ± SEM based on three independent experiments performed in triplicates.
(§7) The IP-One assay was performed as described in the work by Thomsen et al.[28], with few modifications. Breifly, CHO-139 and CHO-M1 were detached and re-suspended to a concentration of 10 million cells/mL. 5 μL 2x concentrated compound (+40 mM LiCl) and 5 μL cell suspension (50,000 cells/well) was mixed. The plate was sealed and incubated at 37 °C for 1 hour. Next, 10 μL detection reagents (lysis buffer containing 2.5% Eu^3+-anti-IP1 antibody and 2.5% IP1-d2) was added and the plate was incubated for 1 hour at room temperature. The plate was read on an Envision (PerkinElmer, Waltham, MA, USA). The time resolved-fluorescence resonance energy transfer (TR-FRET) 665 nm/615 nm ratio, which is inversely proportional to the inositol monophosphate (IP1) accumulation, was used to determine the concentration of the IP1 response.

GPR139 [4] = target: T2, GPR139 (Homo sapiens, UniProt Q6DWJ6); set-up: method as in ref 13, 14 (Dvorak et al.); conditions: relative to L-Trp; 14 (Dvorak et al.); cited from earlier work
T2 sequence (Q6DWJ6 1-353): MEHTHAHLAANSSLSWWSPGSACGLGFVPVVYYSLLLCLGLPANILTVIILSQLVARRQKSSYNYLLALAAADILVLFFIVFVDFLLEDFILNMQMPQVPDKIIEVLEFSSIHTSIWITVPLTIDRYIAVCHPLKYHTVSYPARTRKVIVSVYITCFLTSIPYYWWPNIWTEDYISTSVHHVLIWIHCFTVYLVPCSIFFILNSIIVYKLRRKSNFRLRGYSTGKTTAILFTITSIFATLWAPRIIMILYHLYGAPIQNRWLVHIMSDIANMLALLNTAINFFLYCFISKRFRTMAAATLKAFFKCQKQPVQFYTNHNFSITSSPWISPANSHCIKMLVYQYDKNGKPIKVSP

[5] = in vivo; cited from earlier work
GPR139 [6] = target: T2, GPR139; test: cAMP dynamic 2 assay measuring Gi activation (forskolin) in CHO-139; type: cell-based; conditions: for Inhibition of the cAMP response induced by 5 μM forskolin (Gi), in words: CHO-139
Procedure: as §1
(§8) Supplementary Figure 2. cAMP dynamic 2 assay measuring Gi activation. 5,000 cells/well of CHO-139 (pink bars) or CHO-M1 (blue bars) cells are
(§9) incubated with the indicated compounds for 30 min at room temperature in the presence of 50 µM IBMX and 5 uM Fsk (expect “buffer (-Fsk) where only 50
(§10) µM IBMX is present). The straight line indicate the level of cAMP upon activation with 5 uM Fsk, and the grey area ±10% of the response. The responses are
(§11) one representative out of at two independent experiments performed in triplicates. Data points are means ± SD.

GPR139 [7] = target: T2, GPR139; test: cAMP dynamic 2 assay measuring Gs activation in CHO-139; type: cell-based
Procedure: as §1, §2, §3, §4, §5

GPR139 [8] = target: T2, GPR139; set-up: method as in ref 15 (Hitchcock et al.); conditions: ref 15 (Hitchcock et al.); cited from earlier work
GPR139 [9] = target: T2, GPR139; set-up: method as in ref 6, 13 (Liu et al.); conditions: calcium mobilization in HEK293; 13 (Liu et al.); cited from earlier work
GPR139 [10] = target: T2, GPR139; set-up: method as in PMID 24826842; conditions: GPR139 activation; cited from earlier work
GPR139 [11] = target: T2, GPR139; test: IP-One HTRF assay measuring Gq activation in CHO-139; type: cell-based; conditions: for EC50: IP-One HTRF assay, CHO-139, 20 mM LiCl
Procedure: as §6, §7

GPR139 [12] = target: T2, GPR139; set-up: method as in ref 6, 13 (Liu et al.); conditions: [35S]GTPγS binding, membranes from COS7 cells; 13 (Liu et al.); cited from earlier work
GPR139 [13] = target: T2, GPR139; set-up: method as in ref 6, 13 (Liu et al.); conditions: concentration-dependent calcium response in HEK293 cells; 13 (Liu et al.); cited from earlier work
GPR139 [14] = target: T2, GPR139; set-up: method as in ref 11 (Shi et al.); conditions: ref 11 (Shi et al.), cited from earlier work; for EC50: GPR139 agonist potency
GPR139 [15] = target: T2, GPR139; test: GPR139 agonist potency, data from Shi et al. (Lundbeck series); type: cell-based
M1 receptor [16] = target: T1, M1 receptor; test: cAMP dynamic 2 assay measuring Gi activation (forskolin) in CHO-M1 (control); type: cell-based; conditions: CHO-M1, high concentrations; unspecific response
Procedure: as §1, §8, §9, §10, §11

GPR139 [17] = target: T2, GPR139; test: GPR139 agonist potency, data from Dvorak et al. (Janssen R&D series); type: cell-based
[18] = in vivo; cited from earlier work; remark: listed apart in the source

| fold reduction of potency vs. 1a (GPR139 [15]) | Structure (SMILES) | Gs response (cAMP) (M1 receptor [2]) | IP1 response in CHO-M1 cells (M1 receptor [3]) | Inhibition of the cAMP response induced by 5 μM forskolin (Gi), in words (GPR139 [6]) | Gs response (cAMP) (GPR139 [7]) | EC50 (GPR139 [11]) | EC50 (GPR139 [14]) | Emax (GPR139 [14]) | other results |
| --- | --- | --- | --- | --- | --- | --- | --- | --- | --- |
| ~ 16 fold | COc1ccccc1C(=O)NNC(=O)Nc1cccc2ccccc12 [1c] |  |  |  |  |  | 0.62 µM | 79% |  |
| ~ 26 fold | COc1cccc(C(=O)NNC(=O)Nc2cccc3ccccc23)c1 [1f] |  |  |  |  |  | 1 µM | 100% |  |
| 2 fold and ~ 2.4 fold | COc1cc(OC)cc(C(=O)NNC(=O)Cc2cccc3ccccc23)c1 [1s] |  |  |  |  |  | 0.088 µM | 95% | brain exposure [18]: failed to increase brain exposure due to low plasma levels |

The next lines start with the compound.

| Structure (SMILES) | fold reduction of potency vs. 1a (GPR139 [15]) | Gs response (cAMP) (M1 receptor [2]) | IP1 response in CHO-M1 cells (M1 receptor [3]) | Inhibition of the cAMP response induced by 5 μM forskolin (Gi), in words (GPR139 [6]) | Gs response (cAMP) (GPR139 [7]) | EC50 (GPR139 [11]) | EC50 (GPR139 [14]) | Emax (GPR139 [14]) | other results |
| --- | --- | --- | --- | --- | --- | --- | --- | --- | --- |
| C[C@H](NC(=O)CNC(=O)c1cccc(Cl)c1)c1ccccc1 (racemic) [7c] |  | None of the tested compounds induced Gs response | no response is seen in CHO-M1 cells | none of the tested compounds were able to inhibit the cAMP response | None of the tested compounds induced Gs response |  |  |  | efflux potential [1]: no efflux potential; Emax (GPR139 [4]): 138%; brain to plasma ratio [5]: 1.2 |
| COc1ccc(C(C)NC(=O)Cn2nnc3cc(C)ccc3c2=O)cc1 (centres unmarked) [compound 35] |  |  |  |  |  |  |  |  | EC50 (GPR139 [8]): 0.042 µM |
| N[C@@H](Cc1ccccc1)C(=O)O [L-Phe, L-Phenylalanine] |  | None of the tested compounds induced Gs response | no response is seen in CHO-M1 cells | none of the tested compounds were able to inhibit the cAMP response | None of the tested compounds induced Gs response | 4450 µM |  |  | EC50 (GPR139 [9]): 411 µM; EC50 (GPR139 [10]): 320 µM; EC50 (GPR139 [12]): 31 µM; EC50 (GPR139 [13]): 60 µM |
| N[C@@H](Cc1c[nH]c2ccccc12)C(=O)O [L-Trp, L-Tryptophan] |  | None of the tested compounds induced Gs response | no response is seen in CHO-M1 cells |  | None of the tested compounds induced Gs response | ~8500 µM |  |  | EC50 (GPR139 [9]): 287 µM; Inhibition of the 5 μM forskolin induced cAMP response (M1 receptor [16]): more than 10%; EC50 (GPR139 [10]): 220 µM; agonist type (GPR139 [11]; IP-One assay, compared to compound 1a): super-agonists; EC50 (GPR139 [12]): 26 µM; EC50 (GPR139 [13]): 49 µM; Inhibition of the 5 μM forskolin induced cAMP response (GPR139 [6]; CHO-139, high concentrations): more than 10% |
| COc1ccc(C(C)NC(=O)Cn2nnc3cc(OC)ccc3c2=O)cc1 (centres unmarked) [compound 37] |  |  |  |  |  |  |  |  | EC50 (GPR139 [8]): 0.037 µM |
| COc1cc(OC)cc(C(=O)NNC(=O)Nc2cccc3ccccc23)c1 [1a] |  | None of the tested compounds induced Gs response | no response is seen in CHO-M1 cells | none of the tested compounds were able to inhibit the cAMP response | None of the tested compounds induced Gs response | 1.05 µM |  | 100% |  |
| C[C@H](NC(=O)CNC(=O)c1ccccc1Cl)c1ccccc1 [7b] |  |  |  |  |  |  |  |  | Emax (GPR139 [4]): 120%; fold reduction of potency vs. 7c (GPR139 [17]): ~ 3 fold |
